Assay results taken from PubChem BioAssay (NCI).
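A five-concentration, 48-hour dose response in 96-well plates underlies each endpoint, interpolated linearly between surrounding concentrations. TGI: concentration producing complete growth inhibition.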

Legend:
Test in all cases: DTP human tumour cell line panel, 48 h
HS 578T breast = system: HS 578T breast
OVCAR-3 ovarian = system: OVCAR-3 ovarian
KM12 colon = system: KM12 colon
UACC-257 melanoma = system: UACC-257 melanoma
MCF7 breast = system: MCF7 breast
U251 CNS = system: U251 CNS
A498 renal = system: A498 renal
NCI-H460 lung = system: NCI-H460 lung
SR leukemia = system: SR leukemia
ACHN renal = system: ACHN renal
NCI-H522 lung = system: NCI-H522 lung
LOX IMVI melanoma = system: LOX IMVI melanoma
SNB-75 CNS = system: SNB-75 CNS
UACC-62 melanoma = system: UACC-62 melanoma
MDA-MB-231 breast = system: MDA-MB-231 breast
UO-31 renal = system: UO-31 renal
M14 melanoma = system: M14 melanoma
SW-620 colon = system: SW-620 colon
EKVX NSCLC = system: EKVX NSCLC
OVCAR-8 ovarian = system: OVCAR-8 ovarian
OVCAR-5 ovarian = system: OVCAR-5 ovarian
SF-539 CNS = system: SF-539 CNS
OVCAR-4 ovarian = system: OVCAR-4 ovarian
SK-MEL-28 melanoma = system: SK-MEL-28 melanoma
RXF 393 renal = system: RXF 393 renal
PC-3 prostate = system: PC-3 prostate
CAKI-1 renal = system: CAKI-1 renal
HOP-92 NSCLC = system: HOP-92 NSCLC
HCT-116 colon = system: HCT-116 colon
MDA-N = system: MDA-N
HT29 colon = system: HT29 colon
SN12C renal = system: SN12C renal
HCT-15 colon = system: HCT-15 colon
786-0 renal = system: 786-0 renal
HCC-2998 colon = system: HCC-2998 colon
TK-10 renal = system: TK-10 renal
CCRF-CEM leukemia = system: CCRF-CEM leukemia
COLO 205 colon = system: COLO 205 colon
SNB-19 CNS = system: SNB-19 CNS
HL-60(TB) leukemia = system: HL-60(TB) leukemia
MOLT-4 leukemia = system: MOLT-4 leukemia
NCI-H226 lung = system: NCI-H226 lung
SK-MEL-2 melanoma = system: SK-MEL-2 melanoma
T-47D breast = system: T-47D breast
BT-549 breast = system: BT-549 breast
MALME-3M melanoma = system: MALME-3M melanoma
HOP-62 NSCLC = system: HOP-62 NSCLC
A549 NSCLC = system: A549 NSCLC
NCI-H23 lung = system: NCI-H23 lung
IGROV1 ovarian = system: IGROV1 ovarian
SK-MEL-5 melanoma = system: SK-MEL-5 melanoma
SF-268 CNS = system: SF-268 CNS
NCI/ADR-RES ovarian = system: NCI/ADR-RES ovarian
SF-295 CNS = system: SF-295 CNS
MDA-MB-435 = system: MDA-MB-435
DU-145 prostate = system: DU-145 prostate
RPMI-8226 leukemia = system: RPMI-8226 leukemia
SK-OV-3 ovarian = system: SK-OV-3 ovarian
K-562 leukemia = system: K-562 leukemia

SMILES: COc1ccc(NC(=O)CC(=O)N2N=C(N3CCCCC3)CC2c2ccccc2)cc1 (stereo unspecified)
- TGI (HS 578T breast): > 100 µM
- TGI (OVCAR-3 ovarian): > 100 µM
- TGI (KM12 colon): > 100 µM
- TGI (UACC-257 melanoma): > 100 µM
- TGI (MCF7 breast): > 100 µM
- TGI (U251 CNS): > 100 µM
- TGI (A498 renal): > 100 µM
- TGI (NCI-H460 lung): > 100 µM
- TGI (SR leukemia): > 100 µM
- TGI (ACHN renal): > 100 µM
- TGI (NCI-H522 lung): > 100 µM
- TGI (LOX IMVI melanoma): > 100 µM
- TGI (SNB-75 CNS): > 100 µM
- TGI (UACC-62 melanoma): > 100 µM
- TGI (MDA-MB-231 breast): > 100 µM
- TGI (UO-31 renal): > 100 µM
- TGI (M14 melanoma): > 100 µM
- TGI (SW-620 colon): > 100 µM
- TGI (EKVX NSCLC): > 100 µM
- TGI (OVCAR-8 ovarian): > 100 µM
- TGI (OVCAR-5 ovarian): > 100 µM
- TGI (SF-539 CNS): > 100 µM
- TGI (OVCAR-4 ovarian): > 100 µM
- TGI (SK-MEL-28 melanoma): > 100 µM
- TGI (RXF 393 renal): > 100 µM
- TGI (PC-3 prostate): > 100 µM
- TGI (CAKI-1 renal): > 100 µM
- TGI (HOP-92 NSCLC): > 100 µM
- TGI (HCT-116 colon): > 100 µM
- TGI (MDA-N): > 100 µM
- TGI (HT29 colon): > 100 µM
- TGI (SN12C renal): > 100 µM
- TGI (HCT-15 colon): > 100 µM
- TGI (786-0 renal): > 100 µM
- TGI (HCC-2998 colon): > 100 µM
- TGI (TK-10 renal): > 100 µM
- TGI (CCRF-CEM leukemia): > 100 µM
- TGI (COLO 205 colon): > 100 µM
- TGI (SNB-19 CNS): > 100 µM
- TGI (HL-60(TB) leukemia): > 100 µM
- TGI (MOLT-4 leukemia): > 100 µM
- TGI (NCI-H226 lung): > 100 µM
- TGI (SK-MEL-2 melanoma): > 100 µM
- TGI (T-47D breast): > 100 µM
- TGI (BT-549 breast): > 100 µM
- TGI (MALME-3M melanoma): > 100 µM
- TGI (HOP-62 NSCLC): > 100 µM
- TGI (A549 NSCLC): > 100 µM
- TGI (NCI-H23 lung): > 100 µM
- TGI (IGROV1 ovarian): > 100 µM
- TGI (SK-MEL-5 melanoma): > 100 µM
- TGI (SF-268 CNS): > 100 µM
- TGI (NCI/ADR-RES ovarian): > 100 µM
- TGI (SF-295 CNS): > 100 µM
- TGI (MDA-MB-435): > 100 µM
- TGI (DU-145 prostate): > 100 µM

SMILES: COc1cc(O)c2c(O)c3c(c4c2c1[C@]1(C4)C(C)=CCCC1(C)C)[C@H](O)[C@@]1(O)CC(=O)C(C(N)=O)=C(O)[C@@]1(O)C3=O
- TGI (HS 578T breast): 2.25 µM
- TGI (OVCAR-3 ovarian): 1.38 µM
- TGI (KM12 colon): 1.24 µM
- TGI (UACC-257 melanoma): 0.931 µM
- TGI (MCF7 breast): 1.23 µM
- TGI (U251 CNS): 1.17 µM
- TGI (A498 renal): 0.743 µM
- TGI (NCI-H460 lung): 0.664 µM
- TGI (SR leukemia): 1.45 µM
- TGI (ACHN renal): 1.19 µM
- TGI (NCI-H522 lung): 0.332 µM
- TGI (LOX IMVI melanoma): 1.71 µM
- TGI (SNB-75 CNS): 0.794 µM
- TGI (UACC-62 melanoma): 1.95 µM
- TGI (RPMI-8226 leukemia): 1.18 µM
- TGI (MDA-MB-231 breast): 1.17 µM
- TGI (UO-31 renal): 1.27 µM
- TGI (M14 melanoma): 1.58 µM
- TGI (SW-620 colon): 1.2 µM
- TGI (EKVX NSCLC): 1.06 µM
- TGI (OVCAR-8 ovarian): 1.73 µM
- TGI (OVCAR-5 ovarian): 1.23 µM
- TGI (SF-539 CNS): 0.965 µM
- TGI (OVCAR-4 ovarian): 1.39 µM
- TGI (SK-MEL-28 melanoma): 2.15 µM
- TGI (SK-OV-3 ovarian): 1.43 µM
- TGI (RXF 393 renal): 2.13 µM
- TGI (PC-3 prostate): 0.834 µM
- TGI (CAKI-1 renal): 0.972 µM
- TGI (HOP-92 NSCLC): 1.6 µM
- TGI (HCT-116 colon): 1.3 µM
- TGI (MDA-N): 1.72 µM
- TGI (HT29 colon): 1.08 µM
- TGI (SN12C renal): 1.25 µM
- TGI (HCT-15 colon): 1.45 µM
- TGI (786-0 renal): 1.62 µM
- TGI (TK-10 renal): 1.18 µM
- TGI (K-562 leukemia): 1.52 µM
- TGI (CCRF-CEM leukemia): 0.185 µM
- TGI (COLO 205 colon): 0.24 µM
- TGI (SNB-19 CNS): 1.94 µM
- TGI (HL-60(TB) leukemia): 0.485 µM
- TGI (MOLT-4 leukemia): 1.76 µM
- TGI (NCI-H226 lung): 0.951 µM
- TGI (SK-MEL-2 melanoma): 0.695 µM
- TGI (T-47D breast): 1.81 µM
- TGI (BT-549 breast): 1.54 µM
- TGI (MALME-3M melanoma): 0.675 µM
- TGI (HOP-62 NSCLC): 1.51 µM
- TGI (A549 NSCLC): 1.38 µM
- TGI (NCI-H23 lung): 1.34 µM
- TGI (IGROV1 ovarian): 1.94 µM
- TGI (SK-MEL-5 melanoma): 0.399 µM
- TGI (SF-268 CNS): 1.81 µM
- TGI (NCI/ADR-RES ovarian): 1.5 µM
- TGI (SF-295 CNS): 1.07 µM
- TGI (MDA-MB-435): 1.2 µM
- TGI (DU-145 prostate): 2.43 µM

SMILES: O=c1[nH]nc(Cc2ccccc2)n1/N=C/c1c(O)ccc2ccccc12
- TGI (HS 578T breast): 81.1 µM
- TGI (OVCAR-3 ovarian): 47.5 µM
- TGI (KM12 colon): 81.9 µM
- TGI (UACC-257 melanoma): > 100 µM
- TGI (MCF7 breast): > 100 µM
- TGI (U251 CNS): 38.6 µM
- TGI (A498 renal): 47.4 µM
- TGI (SR leukemia): 59.9 µM
- TGI (ACHN renal): 84.5 µM
- TGI (NCI-H522 lung): 35.5 µM
- TGI (LOX IMVI melanoma): > 100 µM
- TGI (SNB-75 CNS): 79.2 µM
- TGI (UACC-62 melanoma): > 100 µM
- TGI (RPMI-8226 leukemia): 82.5 µM
- TGI (MDA-MB-231 breast): 44.2 µM
- TGI (UO-31 renal): > 100 µM
- TGI (SW-620 colon): > 100 µM
- TGI (EKVX NSCLC): 57.8 µM
- TGI (OVCAR-8 ovarian): 51.9 µM
- TGI (SF-539 CNS): 42.9 µM
- TGI (OVCAR-4 ovarian): 67.1 µM
- TGI (RXF 393 renal): 49.6 µM
- TGI (PC-3 prostate): 64 µM
- TGI (CAKI-1 renal): 88.8 µM
- TGI (HOP-92 NSCLC): 50.3 µM
- TGI (HCT-116 colon): 45.6 µM
- TGI (MDA-N): > 100 µM
- TGI (HT29 colon): 83.9 µM
- TGI (SN12C renal): > 100 µM
- TGI (HCT-15 colon): > 100 µM
- TGI (786-0 renal): 30.3 µM
- TGI (HCC-2998 colon): > 100 µM
- TGI (TK-10 renal): > 100 µM
- TGI (K-562 leukemia): 64.4 µM
- TGI (CCRF-CEM leukemia): > 100 µM
- TGI (COLO 205 colon): > 100 µM
- TGI (SNB-19 CNS): 46.5 µM
- TGI (MOLT-4 leukemia): 79.2 µM
- TGI (NCI-H226 lung): 73.6 µM
- TGI (SK-MEL-2 melanoma): > 100 µM
- TGI (T-47D breast): 77.1 µM
- TGI (BT-549 breast): > 100 µM
- TGI (MALME-3M melanoma): 50.7 µM
- TGI (A549 NSCLC): > 100 µM
- TGI (NCI-H23 lung): > 100 µM
- TGI (IGROV1 ovarian): 93.4 µM
- TGI (SK-MEL-5 melanoma): 48.7 µM
- TGI (SF-268 CNS): 90.6 µM
- TGI (NCI/ADR-RES ovarian): 64.2 µM
- TGI (SF-295 CNS): 69 µM
- TGI (MDA-MB-435): > 100 µM
- TGI (DU-145 prostate): > 100 µM
